Source: ChEMBL document CHEMBL1914391, “Design and synthesis of biotinylated inositol 1,3,4,5-tetrakisphosphate targeting Grp1 pleckstrin homology domain” (Bioorg Med Chem, 2011)

Columns and labels:
[1] = molecular target: T1, 1-phosphatidylinositol 4,5-bisphosphate phosphodiesterase delta-1 (Rattus norvegicus, UniProt P10688); test: Binding affinity to recombinant rat brain PLCdelta1 PH domain (amino acids 11 to 140) by SPR analysis
T1 sequence (P10688 whole entry): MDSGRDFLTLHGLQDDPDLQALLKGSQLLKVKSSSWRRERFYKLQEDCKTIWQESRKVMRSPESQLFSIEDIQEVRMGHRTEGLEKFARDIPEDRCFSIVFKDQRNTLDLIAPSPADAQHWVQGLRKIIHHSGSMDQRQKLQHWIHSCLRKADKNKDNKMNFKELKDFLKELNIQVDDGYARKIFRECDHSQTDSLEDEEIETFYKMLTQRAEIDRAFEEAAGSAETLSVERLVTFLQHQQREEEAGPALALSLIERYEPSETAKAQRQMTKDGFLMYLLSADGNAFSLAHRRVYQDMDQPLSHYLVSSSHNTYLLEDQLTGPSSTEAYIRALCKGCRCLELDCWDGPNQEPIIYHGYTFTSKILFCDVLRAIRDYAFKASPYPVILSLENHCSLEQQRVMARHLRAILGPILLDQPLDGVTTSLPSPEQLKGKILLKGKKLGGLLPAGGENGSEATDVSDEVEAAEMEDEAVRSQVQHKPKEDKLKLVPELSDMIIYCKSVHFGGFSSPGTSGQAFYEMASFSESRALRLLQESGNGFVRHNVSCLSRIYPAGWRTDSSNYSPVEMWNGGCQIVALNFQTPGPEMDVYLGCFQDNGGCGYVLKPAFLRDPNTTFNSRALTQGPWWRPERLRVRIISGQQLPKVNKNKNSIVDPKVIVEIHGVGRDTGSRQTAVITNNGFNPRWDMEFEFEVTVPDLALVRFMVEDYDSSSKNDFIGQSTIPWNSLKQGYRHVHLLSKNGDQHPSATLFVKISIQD

Cytohesin-3 [2] = molecular target: T2, Cytohesin-3 (Rattus norvegicus, UniProt P97696); test: Binding affinity to recombinant rat brain Grp1 PH domain (amino acids 1 to 120) by SPR analysis
T2 sequence (P97696 whole entry): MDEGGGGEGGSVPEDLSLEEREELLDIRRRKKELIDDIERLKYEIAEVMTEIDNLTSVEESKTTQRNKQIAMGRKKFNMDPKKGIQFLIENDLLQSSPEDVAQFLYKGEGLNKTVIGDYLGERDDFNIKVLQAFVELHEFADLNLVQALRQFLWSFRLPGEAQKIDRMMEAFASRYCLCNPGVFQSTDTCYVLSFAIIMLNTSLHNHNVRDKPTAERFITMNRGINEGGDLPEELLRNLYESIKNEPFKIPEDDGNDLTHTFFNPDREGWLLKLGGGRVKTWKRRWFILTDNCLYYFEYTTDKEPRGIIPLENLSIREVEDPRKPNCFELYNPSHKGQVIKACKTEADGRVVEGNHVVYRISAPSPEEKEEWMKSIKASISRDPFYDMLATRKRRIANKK

Cytohesin-3 [3] = molecular target: T2, Cytohesin-3; test: Binding affinity to recombinant rat brain Grp1 PH domain (amino acids 1 to 120) after 10 mins by pull-down assay
[4] = molecular target: T3, 1-phosphatidylinositol 4,5-bisphosphate phosphodiesterase delta-1 (Homo sapiens, UniProt P51178); test: Binding affinity to PLCdelta1 PH domain
T3 sequence (P51178 whole entry): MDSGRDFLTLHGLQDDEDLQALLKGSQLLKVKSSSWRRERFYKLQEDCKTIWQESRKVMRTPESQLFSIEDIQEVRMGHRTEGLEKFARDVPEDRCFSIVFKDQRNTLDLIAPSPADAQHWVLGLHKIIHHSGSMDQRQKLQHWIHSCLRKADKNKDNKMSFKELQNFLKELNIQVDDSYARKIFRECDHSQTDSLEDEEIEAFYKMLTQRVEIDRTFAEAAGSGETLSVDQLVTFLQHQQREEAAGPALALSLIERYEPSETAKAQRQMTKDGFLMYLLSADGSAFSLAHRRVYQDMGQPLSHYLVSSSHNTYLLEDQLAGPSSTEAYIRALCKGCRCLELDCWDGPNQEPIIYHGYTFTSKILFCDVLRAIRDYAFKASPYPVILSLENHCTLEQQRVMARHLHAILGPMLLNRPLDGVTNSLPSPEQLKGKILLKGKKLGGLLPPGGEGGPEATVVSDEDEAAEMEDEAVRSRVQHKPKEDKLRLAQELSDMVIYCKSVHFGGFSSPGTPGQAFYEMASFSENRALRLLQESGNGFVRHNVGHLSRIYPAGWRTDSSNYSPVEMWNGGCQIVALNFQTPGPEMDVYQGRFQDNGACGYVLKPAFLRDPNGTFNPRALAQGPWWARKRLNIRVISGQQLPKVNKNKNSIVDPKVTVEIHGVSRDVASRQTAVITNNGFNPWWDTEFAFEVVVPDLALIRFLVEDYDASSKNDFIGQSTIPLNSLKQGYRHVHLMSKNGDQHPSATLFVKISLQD

Structure (SMILES) | Kd [1] [µM] | Kd (Cytohesin-3 [2]) [µM] | Kd (Cytohesin-3 [3]) [µM] | Kd [4] [µM]
O=C(CCCC[C@@H]1SC[C@@H]2NC(=O)N[C@@H]21)NCCCCCCOP(=O)(O)O[C@@H]1[C@@H](O)[C@H](OP(=O)(O)O)[C@@H](OP(=O)(O)O)[C@H](O)[C@@H]1O | > 5 | > 1 | – | –
O=C(CCCC[C@@H]1SC[C@@H]2NC(=O)N[C@@H]21)NCCCCCCOP(=O)(O)O[C@@H]1[C@H](O)[C@H](O)[C@@H](OP(=O)(O)O)[C@H](OP(=O)(O)O)[C@H]1O | 2.2 | > 1 | – | –
O=C(CCCC[C@@H]1SC[C@@H]2NC(=O)N[C@@H]21)NCCCCCCOP(=O)(O)O[C@H]1[C@H](O)[C@@H](OP(=O)(O)O)[C@H](OP(=O)(O)O)[C@@H](OP(=O)(O)O)[C@H]1O | > 5 | 0.3 | 0.14 | 0.25
O=P(O)(O)O[C@H]1[C@H](O)[C@@H](OP(=O)(O)O)[C@H](OP(=O)(O)O)[C@@H](OP(=O)(O)O)[C@H]1O | – | – | 0.1 | –
